Where two headings read alike, the source gives them in different places.
Experiments:
[1] = system: alpha-synuclein 5′-UTR IRE (SNCA 5′UTR); test: Primary screen/retest: ASYN 5′-UTR IRE-driven luciferase expression in H4 cells; format: cell-based, human; details: 48 h
[2] = system: PGL3 5′UTR; test: Secondary (counterscreen) luciferase assay in H4-C cells, IRE stem-loop removed; format: cell-based, human; details: versus SNCA 5′UTR
[3] = system: PrP-5′UTR (prion protein IRE); format: cell-based, human; details: versus SNCA 5′UTR
[4] = system: alpha-synuclein; test: ELISA secondary screen for alpha-synuclein in SH-SY5Y cells; format: cell-based, human; design: Decrease syn(%) SHSY5Y cells: unit of the concentration uncertain; details: for Decrease αsyn(%) SHSY5Y cells: Table 2; for Decrease syn(%) SHSY5Y cells: Table 3
Description: FIG. 2 illustrates the results of ELISA experiments with compound 10 in SH-SY5Y cells. […]
FIG. 18 illustrates alpha Synuclein ELISA (Invitrogen) measurements from SHSY5 undifferentiated neurons treated with the indicated doses (triplicate wells) of compounds 2, 13, 11, 14, 15, and 16) for 48 h.
A human ASYN ELISA kit was utilized for all ELISA experiments (Invitrogen alpha-synuclein ELISA kit KHB0061) and the kit protocol was followed.
1) Plate SH-SY5Y […] cells (Corning, 3570) at 10,000 cells/well in 50 μL phenol red free media (phenol red-free DMEM with 4.5 g/L D-glucose [Lonza, 12-917F] supplemented with 10% FBS [Lonza, 14-503E], 200 μM L-glutamine [Lonza, 17-605E], 100 μM penstrep [Lonza, 17-602E] and 200 μg/mL geneticin [Invitrogen, 10131-027]).
2) Lid plates, then incubate cells for 24 hours at 37° C., 5% CO2, 95% humidity in a tissue culture incubator.
3) Pin 100 nL of each compound into the assay plates spanning a final concentration range from 100-0.006 μM.
4) Incubate plates for 48 h at 37° C., 5% CO2, 95% humidity. Following incubation, add 5 μL of Alamar blue solution per well and allow to incubate for 1 h at 37° C., 5% CO2, 95% humidity.
5) Read Alamar blue fluorescence using a Thermo Varioskan (570 nm excitation, 585 nm emission). Remove cell media and add 30 μL cell lysis solution with protease inhibitor (G Biosciences, 786-331; 10 μL/mL).
6) Place plates on a plate shaker for 1 h, before removing 20 μL lysate. Transfer cell lysates to 500 μL Eppendorf tubes and centrifuge (Eppendorf Centrifuge 5417C) for 10 min at 13,000 rpm.
7) Add 12 μL of the cell supernatant to 48 μL of standard diluent buffer (1:5). Add these samples to ELISA plate wells. Prepare ASYN standard curve wells as described in the kit manual.
8) Add 50 μL of anti-α-Synuclein (Detection Antibody) solution to each well, tapping the plate to mix. Cover the plate with a tape seal and incubate for 3 h at RT.
9) Wash wells four times with wash buffer using a multichannel pipette and add 100 μL of anti-rabbit IgG-HRP antibody solution to each well. Cover the plate and incubate for 30 min at RT. Wash wells four times with wash buffer and add 100 μL of Stabilized Chromogen to each well. Seal the plate and incubate in the dark at RT for 30 min.
10) Finally, add 100 μL of Stop Solution to each well, tapping the plate to mix, and read absorbance at 450 nm using an Envision plate reader (Perkin Elmer).

[5] = system: α-Synuclein; test: Decrease of α-syn in iPSC derived DA neurons; format: cell-based, human; design: Decrease syn(%) DA neurons: dose or concentration left out as unconfirmed; details: for Decrease αsyn(%) DA neurons: Table 2; for Decrease syn(%) DA neurons: Table 3
[6] = system: α-Syn in tyrosine hydroxylase positive (TH+) neurons; test: Immunocytochemical quantitation of α-Syn in TH+ SNCA+ neurons; format: cell-based; details: low dose; decreased from 30 %
Source text: FIG. 14 illustrates that immunocytochemical quantitation of effect of Compound 2 on α-Syn expression in tyrosine hydroxylase positive (TH+) α-synuclein positive (SNCA+) neurons. Panel A: antibody stains for TH and α-Syn. TH positive cells were counted. TH positive and SNCA positive cells were counted. The quantification was done by collecting 9 image fields/well with 3 wells/condition Panel B. The images were fed into Cell Profiler (Broad software).

[7] = system: α-Synuclein; test: Western blots of α-syn in iPSC derived DA neuron lysates; format: cell-based, human
[8] = system: α-Syn; test: Decrease of α-syn in Triple SNCA cortical neurons; details: concentration not given; for Decrease αsyn(%) X3 SNCA neurons: Table 2
[9] = system: SNCA IRE; test: Spinach fluorescent assay, SNCA IRE fluorescence sensor R7

COc1ccc(N(CC(=O)Nc2cc(Cl)ccc2OC)S(=O)(=O)c2c(C)noc2C)cc1 [Compound 2, N-(5-chloro-2-methoxyphenyl)-2-((N-(4-methoxyphenyl)-3,5-dimethylisoxazole)-4-sulfonamido)acetamide]
IC50 ([1]; Homo sapiens, read-out: IC50/M (SNCA 5′UTR)): 5.8 µM
IC50 ([1]; Homo sapiens, read-out: IC50/μM (SNCA 5′UTR)): 5.8 µM
Selectivity PGL3 5′UTR ([2]; Table 2): 21-fold
Selectivity PGL3 5′UTR ([2]; Table 3): 21-fold
Selectivity PrP-5′UTR ([3]; Table 2): 18-fold
Selectivity PrP-5′UTR ([3]; Table 3): 18-fold
Decrease αsyn(%) SHSY5Y cells ([4]; @ 0.1 μM): 25-50 @ 0.1%
Decrease syn(%) SHSY5Y cells ([4]; @ 0.1 µM): 25-50 @ 0.1M %
Decrease αsyn(%) DA neurons ([5]; @ 1 μM): 60 @ 1 μM %
Decrease syn(%) DA neurons [5]: 60 @ 1M %
number of TH/SNCA positive cells [6]: 18%
inhibition of α-Synuclein protein expression versus β-Syn, γ-Syn, Ferritin, APP and Prion proteins ([7]; 1 μM, 72 h, normalized to β-Actin): selectively inhibit
α-syn levels (Western blot) ([7]; 10 μM and 1 μM compound, 72 h, β-actin standardized, N=3): reduced
Decrease αsyn(%) X3 SNCA neurons [8]: 50%
binding to SNCA IRE (fluorescence of sensor R7) [9]: significant increases in binding

COc1cccc(N2CCN(C(=O)c3ccc(C[S+]([O-])c4ccc(C)cc4)o3)CC2)c1 (centres unmarked) [Compound 11, 1-(3-Methoxyphenyl)-4-(5-{[(4-methylphenyl)sulfinyl]methyl}-2-furoyl)piperazine]
IC50 ([1]; Homo sapiens, Table 3, H4 cells, luciferase, read-out: IC50/M (SNCA 5′UTR)): 0.1 µM
Selectivity PGL3 5′UTR ([2]; Table 3): 58-fold
Selectivity PrP-5′UTR ([3]; Table 3): 126-fold
Decrease syn(%) SHSY5Y cells ([4]; @ 1 µM): 14-28 @ 1M^ %
binding to SNCA IRE (fluorescence of sensor R7) [9]: binds strongly

CN1CC[C@]2(C)c3cc(OC(=O)Nc4ccccc4)ccc3N(C)[C@H]12 [Posiphen, reference compound]
IC50 ([1]; Table 2, H4 cells, luciferase, read-out: IC50/μM (SNCA 5′UTR)): 10 µM
Decrease αsyn(%) SHSY5Y cells ([4]; @10 μM): 25-50 @10%
Decrease syn(%) SHSY5Y cells ([4]; @10 µM): 25-50 @10M ^ %
Decrease αsyn(%) DA neurons ([5]; concentration not given): 25%
Decrease syn(%) DA neurons ([5]; concentration not given): 25%
α-syn levels (Western blot) [7]: reduced
Decrease αsyn(%) X3 SNCA neurons [8]: 5%
Decrease syn(%) X3 SNCA neuron ([8]; Table 3): 5%
binding to SNCA IRE (fluorescence of sensor R7) [9]: no measurable effect or quenching effect

From US20250170124A1, “METHODS OF DIAGNOSING AND TREATING NEURODEGENERATIVE DISEASES” (The General Hospital Corporation, priority 2022, published 2025)
